# From PMC10746543, “Design principles for cyclin K molecular glue degraders” (Nature Chemical Biology, 2023)
# “And” between values parts separate entries of the source, which are not always exact repeats. Identical values can stand only once.
# Assays:
# [1] = tested on: cyclin K–eGFP degradation reporter; experiment: Cyclin K reporter stability analysis (dual-color cyclin K–eGFP reporter); type: cell-based, human; conditions: for reporter assay signal (normalized): replicates
# Summary of the method: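 HEK293T–Cas9 cells carrying the cyclin K–eGFP reporter were seeded at 1 × 10^6 ml^−1 and exposed to drug or DMSO for 5 h. Flow cytometry gave geometric means of eGFP and mCherry in round, mCherry-positive cells. The eGFP/mCherry ratio was normalized to the mean of three DMSO controls.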
# HEK293T cells = experiment: Drug sensitivity assay (CellTiter-Glo viability) with or without MLN4924 pretreatment; type: cell-based, human; conditions: for CTG: MLN4924 yes, HEK293T, single well
# Summary of the method: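 First, cells (HEK293T–Cas9, 0.15 × 10^6 ml^−1) are exposed to DMSO or 100 nM MLN4924. Next, drugs follow at 2 h. Finally, CellTiter-Glo is read at day 3 and normalised to DMSO.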
# CDK12–cyclin K = CDK12–cyclin K (Homo sapiens, UniProt Q9NYV4); experiment: Lanthascreen kinase binding assay, CDK12; conditions: for Lanthascreen raw signal, sheet CDK12: duplicates
# Experimental: Lanthascreen experiments were performed using commercially available reagents (Thermo Fisher) and according to the manufacturer’s instructions.
# CDK13 = biological target: T1, CDK13 (Homo sapiens, UniProt Q14004+Q16531); experiment: Label-free quantitative mass spectrometry in MDA-MB-231 cells, CDK13; type: cell-based
# T1 construct: endogenous in cells; host or cells: MDA-MB-231
# Summary of the method: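 MDA-MB-231 cells treated 5 h with 1 µM cyclin K degrader or DMSO. Lysates digested with LysC and trypsin, then analysed by label-free diaPASEF LC-MS on a TimsTOF Pro2 with directDIA search and MS1 precursor quantification. Protein abundances scaled and analysed with limma.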
# CDK12–cyclin K, sequence (Q9NYV4 713-1052): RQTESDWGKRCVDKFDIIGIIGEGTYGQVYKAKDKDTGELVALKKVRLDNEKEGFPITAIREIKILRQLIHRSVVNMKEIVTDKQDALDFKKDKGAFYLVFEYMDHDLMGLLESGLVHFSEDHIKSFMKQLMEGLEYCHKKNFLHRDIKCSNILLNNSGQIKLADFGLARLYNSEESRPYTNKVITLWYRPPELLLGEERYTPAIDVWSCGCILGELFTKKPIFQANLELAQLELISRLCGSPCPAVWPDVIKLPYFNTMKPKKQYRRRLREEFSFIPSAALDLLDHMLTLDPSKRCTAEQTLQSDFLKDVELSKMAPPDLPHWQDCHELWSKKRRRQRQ
# CDK12–cyclin K, sequence (O75909 1-267 partner limits assumed): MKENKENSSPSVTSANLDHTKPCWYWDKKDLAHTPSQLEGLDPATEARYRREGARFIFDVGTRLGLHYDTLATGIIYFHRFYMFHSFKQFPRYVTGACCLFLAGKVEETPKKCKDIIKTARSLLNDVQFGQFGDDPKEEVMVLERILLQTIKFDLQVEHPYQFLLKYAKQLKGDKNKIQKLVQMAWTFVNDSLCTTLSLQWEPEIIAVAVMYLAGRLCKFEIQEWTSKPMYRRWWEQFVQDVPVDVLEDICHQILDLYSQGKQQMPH
# T1 sequence (Q14004 whole entry): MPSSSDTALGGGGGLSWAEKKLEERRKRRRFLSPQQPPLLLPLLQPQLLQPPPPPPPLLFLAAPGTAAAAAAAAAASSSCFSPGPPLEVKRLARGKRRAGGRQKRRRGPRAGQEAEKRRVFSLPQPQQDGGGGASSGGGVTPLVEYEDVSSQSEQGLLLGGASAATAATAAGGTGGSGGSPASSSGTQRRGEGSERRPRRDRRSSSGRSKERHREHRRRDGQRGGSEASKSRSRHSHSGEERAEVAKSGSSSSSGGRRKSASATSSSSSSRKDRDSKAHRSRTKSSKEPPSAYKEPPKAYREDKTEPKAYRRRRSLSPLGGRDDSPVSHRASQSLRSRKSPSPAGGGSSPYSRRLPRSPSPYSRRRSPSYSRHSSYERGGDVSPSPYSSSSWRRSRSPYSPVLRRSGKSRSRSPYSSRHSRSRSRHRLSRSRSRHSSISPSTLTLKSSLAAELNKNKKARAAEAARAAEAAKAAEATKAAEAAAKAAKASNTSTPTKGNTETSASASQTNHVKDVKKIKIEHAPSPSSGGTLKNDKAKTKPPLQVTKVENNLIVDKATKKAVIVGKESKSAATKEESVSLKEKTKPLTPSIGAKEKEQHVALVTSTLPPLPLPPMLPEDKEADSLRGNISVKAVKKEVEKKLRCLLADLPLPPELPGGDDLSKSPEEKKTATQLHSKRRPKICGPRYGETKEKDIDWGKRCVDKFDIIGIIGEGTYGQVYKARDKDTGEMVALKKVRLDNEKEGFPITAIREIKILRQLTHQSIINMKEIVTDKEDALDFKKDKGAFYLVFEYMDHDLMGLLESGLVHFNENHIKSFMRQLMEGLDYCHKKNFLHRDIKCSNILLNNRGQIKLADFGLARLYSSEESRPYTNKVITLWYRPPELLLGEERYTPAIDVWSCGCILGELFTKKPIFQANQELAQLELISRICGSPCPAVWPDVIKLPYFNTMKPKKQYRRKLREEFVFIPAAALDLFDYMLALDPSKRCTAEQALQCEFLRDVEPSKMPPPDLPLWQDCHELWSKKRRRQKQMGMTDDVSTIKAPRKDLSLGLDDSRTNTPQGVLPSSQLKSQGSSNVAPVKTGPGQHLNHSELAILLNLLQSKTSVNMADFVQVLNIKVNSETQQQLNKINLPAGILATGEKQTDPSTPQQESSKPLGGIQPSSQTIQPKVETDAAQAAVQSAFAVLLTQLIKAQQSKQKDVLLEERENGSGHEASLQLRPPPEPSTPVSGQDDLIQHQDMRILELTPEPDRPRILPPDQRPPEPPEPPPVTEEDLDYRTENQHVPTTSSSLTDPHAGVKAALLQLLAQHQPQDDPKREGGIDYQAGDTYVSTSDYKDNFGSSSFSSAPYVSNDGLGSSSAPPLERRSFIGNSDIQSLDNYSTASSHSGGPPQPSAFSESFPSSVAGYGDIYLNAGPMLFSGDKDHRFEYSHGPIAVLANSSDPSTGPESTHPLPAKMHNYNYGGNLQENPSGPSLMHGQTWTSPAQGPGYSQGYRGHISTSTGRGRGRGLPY
# T1 sequence (O75909 whole entry partner): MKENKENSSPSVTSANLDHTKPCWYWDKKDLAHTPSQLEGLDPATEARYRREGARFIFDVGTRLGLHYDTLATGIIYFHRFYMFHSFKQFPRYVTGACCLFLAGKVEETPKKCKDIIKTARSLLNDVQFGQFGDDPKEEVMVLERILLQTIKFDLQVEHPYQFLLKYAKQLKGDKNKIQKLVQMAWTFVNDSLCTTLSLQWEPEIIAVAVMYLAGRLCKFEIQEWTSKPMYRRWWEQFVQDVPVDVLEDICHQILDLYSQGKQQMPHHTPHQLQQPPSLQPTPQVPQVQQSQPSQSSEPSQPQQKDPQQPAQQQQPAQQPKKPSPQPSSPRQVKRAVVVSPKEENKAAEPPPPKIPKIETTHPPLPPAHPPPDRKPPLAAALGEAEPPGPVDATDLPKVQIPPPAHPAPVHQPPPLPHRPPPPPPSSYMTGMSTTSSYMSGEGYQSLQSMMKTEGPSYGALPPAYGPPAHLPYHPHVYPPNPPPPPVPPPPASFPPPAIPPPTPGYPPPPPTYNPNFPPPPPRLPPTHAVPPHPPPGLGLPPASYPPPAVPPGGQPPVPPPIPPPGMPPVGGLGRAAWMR
# T1 sequence (Q16531 2-1140 limits assumed): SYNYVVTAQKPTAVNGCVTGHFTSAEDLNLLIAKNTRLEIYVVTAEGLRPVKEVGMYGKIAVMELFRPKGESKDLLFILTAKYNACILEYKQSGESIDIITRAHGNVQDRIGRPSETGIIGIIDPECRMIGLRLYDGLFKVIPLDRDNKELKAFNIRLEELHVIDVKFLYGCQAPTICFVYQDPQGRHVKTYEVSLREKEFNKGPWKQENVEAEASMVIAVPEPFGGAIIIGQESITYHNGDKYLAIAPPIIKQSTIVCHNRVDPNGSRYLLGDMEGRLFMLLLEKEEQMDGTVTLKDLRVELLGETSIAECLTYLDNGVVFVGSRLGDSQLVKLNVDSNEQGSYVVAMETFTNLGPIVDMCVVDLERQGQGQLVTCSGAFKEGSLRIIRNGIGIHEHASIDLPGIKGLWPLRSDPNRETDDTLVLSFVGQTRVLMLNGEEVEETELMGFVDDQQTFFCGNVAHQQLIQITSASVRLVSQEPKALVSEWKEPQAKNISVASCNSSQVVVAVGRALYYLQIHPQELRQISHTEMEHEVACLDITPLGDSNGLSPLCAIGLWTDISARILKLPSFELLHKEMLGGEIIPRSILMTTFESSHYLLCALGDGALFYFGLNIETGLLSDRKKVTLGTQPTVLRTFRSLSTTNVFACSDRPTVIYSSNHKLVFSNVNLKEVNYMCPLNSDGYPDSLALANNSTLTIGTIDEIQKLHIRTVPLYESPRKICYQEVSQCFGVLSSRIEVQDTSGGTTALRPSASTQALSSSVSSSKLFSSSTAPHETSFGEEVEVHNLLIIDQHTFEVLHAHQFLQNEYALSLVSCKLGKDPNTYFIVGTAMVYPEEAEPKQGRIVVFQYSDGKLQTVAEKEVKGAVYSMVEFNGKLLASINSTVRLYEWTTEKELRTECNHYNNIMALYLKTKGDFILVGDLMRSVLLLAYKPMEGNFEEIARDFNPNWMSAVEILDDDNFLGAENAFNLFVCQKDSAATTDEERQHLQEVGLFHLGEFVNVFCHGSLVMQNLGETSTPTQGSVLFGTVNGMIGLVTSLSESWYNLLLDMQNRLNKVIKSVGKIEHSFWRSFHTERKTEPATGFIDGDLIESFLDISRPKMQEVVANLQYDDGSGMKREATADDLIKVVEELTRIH
smiles,measurement,setting,value
CC(C)c1nn(-c2c(Cl)cccc2Cl)c2nc(Cc3ccc(OCCO)cc3)[nH]c(=O)c12 [compound 21195],reporter assay signal (normalized),[1]; 2 nM,0.9561 and 0.9287
same,reporter assay signal (normalized),[1]; 3 nM,0.9797 and 0.9734
same,reporter assay signal (normalized),[1]; 4.5 nM,0.9145 and 0.9397
same,reporter assay signal (normalized),[1]; 7.68 nM,0.9019 and 0.9312
same,reporter assay signal (normalized),[1]; 22.8 nM,0.769 and 0.8233
same,reporter assay signal (normalized),[1]; 34.2 nM,0.7674 and 0.787
same,reporter assay signal (normalized),[1]; 51.3 nM,0.6849 and 0.771
same,reporter assay signal (normalized),[1]; 77 nM,0.6566 and 0.7136
same,reporter assay signal (normalized),[1]; 260 nM,0.6047 and 0.6647
same,reporter assay signal (normalized),[1]; 390 nM,0.6094 and 0.6714
same,reporter assay signal (normalized),[1]; 585 nM,0.6094 and 0.6655
same,reporter assay signal (normalized),[1]; 877 nM,0.6086 and 0.6352
same,reporter assay signal (normalized),[1]; 1970 nM,0.5992 and 0.6495
same,reporter assay signal (normalized),[1]; 2960 nM,0.552 and 0.6731
same,reporter assay signal (normalized),[1]; 4440 nM,0.5937 and 0.62
same,reporter assay signal (normalized),[1]; 6670 nM,0.5457 and 0.6014
same,reporter assay signal (normalized),[1]; 10000 nM,0.5701 and 0.6031
same,"cyclin K reporter degradation, result in words",[1]; HEK293T,potent degraders
same,DC50,"[1]; source data sheet correlations, read-out: DC50",26 nM
same,viability assay signal (normalized),"HEK293T cells; 5 nM, + MLN4924",0.9981 and 0.9962
same,viability assay signal (normalized),"HEK293T cells; 5 nM, without MLN4924",1.164 and 1.103
same,viability assay signal (normalized),"HEK293T cells; 10.7 nM, + MLN4924",1.03 and 0.9545
same,viability assay signal (normalized),"HEK293T cells; 10.7 nM, without MLN4924",1.004 and 0.916
same,viability assay signal (normalized),"HEK293T cells; 22.9 nM, + MLN4924",1.044 and 1.059
same,viability assay signal (normalized),"HEK293T cells; 22.9 nM, without MLN4924",0.9744 and 0.9831
same,viability assay signal (normalized),"HEK293T cells; 48.9 nM, + MLN4924",0.9201 and 0.8826
same,viability assay signal (normalized),"HEK293T cells; 48.9 nM, without MLN4924",0.5003 and 0.5087
same,viability assay signal (normalized),"HEK293T cells; 105 nM, + MLN4924",0.7478 and 0.7261
same,viability assay signal (normalized),"HEK293T cells; 105 nM, without MLN4924",0.2946 and 0.2725
same,viability assay signal (normalized),"HEK293T cells; 224 nM, + MLN4924",0.3645 and 0.3756
same,viability assay signal (normalized),"HEK293T cells; 224 nM, without MLN4924",0.297 and 0.2837
same,viability assay signal (normalized),"HEK293T cells; 478 nM, + MLN4924",0.2678 and 0.2737
same,viability assay signal (normalized),"HEK293T cells; 478 nM, without MLN4924",0.2806 and 0.2662
same,CTG,HEK293T cells; 2190 nM,32283
same,viability assay signal (normalized),"HEK293T cells; 2190 nM, + MLN4924",0.2528 and 0.2544
same,viability assay signal (normalized),"HEK293T cells; 2190 nM, without MLN4924",0.2713 and 0.2676
same,CTG,HEK293T cells; 4680 nM,28534 and 32644
same,viability assay signal (normalized),"HEK293T cells; 4680 nM, + MLN4924",0.2234 and 0.2556
same,viability assay signal (normalized),"HEK293T cells; 4680 nM, without MLN4924",0.2632 and 0.2448
same,CTG,HEK293T cells; 10000 nM,27157 and 28920
same,viability assay signal (normalized),"HEK293T cells; 10000 nM, + MLN4924",0.2126 and 0.2265
same,viability assay signal (normalized),"HEK293T cells; 10000 nM, without MLN4924",0.2678 and 0.2469
same,EC50,"HEK293T cells; Homo sapiens, HEK-293T, Supplementary Table 2, HEK293T viability, 72 h, compound alone, read-out: Cellular assays EC50",39 nM
same,Toxicity rescue,"HEK293T cells; Supplementary Table 2, MLN4924-mediated cytotoxicity rescue, 10 µM used where n.d.",226%
same,IC50,"CDK12–cyclin K; Supplementary Table 2, read-out: Lanthascreen IC50 [nM] CDK12",31 nM
same,"Lanthascreen raw signal, sheet CDK12","CDK12–cyclin K; compound 0.038147 nM, series r49",0.008046 and 0.008167
same,"Lanthascreen raw signal, sheet CDK12","CDK12–cyclin K; compound 0.152588 nM, series r49",0.01001 and 0.009391
same,"Lanthascreen raw signal, sheet CDK12","CDK12–cyclin K; compound 0.610352 nM, series r49",0.008764 and 0.009174
same,"Lanthascreen raw signal, sheet CDK12","CDK12–cyclin K; compound 0.76 nM, series r25",0.01117 and 0.01013
same,"Lanthascreen raw signal, sheet CDK12","CDK12–cyclin K; compound 1.02544 nM, series r1",0.009771 and 0.007848
same,"Lanthascreen raw signal, sheet CDK12","CDK12–cyclin K; compound 3.15521 nM, series r1",0.009162 and 0.009522
same,"Lanthascreen raw signal, sheet CDK12","CDK12–cyclin K; compound 4.57247 nM, series r25",0.01016 and 0.01236
same,"Lanthascreen raw signal, sheet CDK12","CDK12–cyclin K; compound 9.46563 nM, series r1",0.007787 and 0.0086
same,"Lanthascreen raw signal, sheet CDK12","CDK12–cyclin K; compound 9.76563 nM, series r49",0.007441 and 0.00728
same,"Lanthascreen raw signal, sheet CDK12","CDK12–cyclin K; compound 13.7174 nM, series r25",0.01024 and 0.009436
same,"Lanthascreen raw signal, sheet CDK12","CDK12–cyclin K; compound 31.5521 nM, series r1",0.006914 and 0.007088
same,"Lanthascreen raw signal, sheet CDK12","CDK12–cyclin K; compound 39.0625 nM, series r49",0.007229 and 0.006516
same,"Lanthascreen raw signal, sheet CDK12","CDK12–cyclin K; compound 41.1523 nM, series r25",0.009216 and 0.008226
same,"Lanthascreen raw signal, sheet CDK12","CDK12–cyclin K; compound 99.3891 nM, series r1",0.004636 and 0.007689
same,"Lanthascreen raw signal, sheet CDK12","CDK12–cyclin K; compound 123.457 nM, series r25",0.007812 and 0.006741
same,"Lanthascreen raw signal, sheet CDK12","CDK12–cyclin K; compound 156.25 nM, series r49",0.006172 and 0.006187
same,"Lanthascreen raw signal, sheet CDK12","CDK12–cyclin K; compound 315.521 nM, series r1",0.005556 and 0.004599
same,"Lanthascreen raw signal, sheet CDK12","CDK12–cyclin K; compound 370.37 nM, series r25",0.006605 and 0.00608
same,"Lanthascreen raw signal, sheet CDK12","CDK12–cyclin K; compound 625 nM, series r49",0.006151 and 0.006004
same,"Lanthascreen raw signal, sheet CDK12","CDK12–cyclin K; compound 2500 nM, series r49",0.005584 and 0.005705
same,"Lanthascreen raw signal, sheet CDK12","CDK12–cyclin K; compound 3155.21 nM, series r1",0.006552 and 0.005285
same,"Lanthascreen raw signal, sheet CDK12","CDK12–cyclin K; compound 3333.33 nM, series r25",0.006042 and 0.006492
same,"Lanthascreen raw signal, sheet CDK12","CDK12–cyclin K; compound 10000 nM, series r25",0.006222 and 0.005571
same,"Lanthascreen raw signal, sheet CDK12","CDK12–cyclin K; compound 10000 nM, series r49",0.005751 and 0.005801
same,"Lanthascreen raw signal, sheet CDK12","CDK12–cyclin K; compound 10002 nM, series r1",0.00595 and 0.006099
same,CDK13 peptide count,"CDK13; label-free quantitative MS, replicate values",262.248 and 170.145
same,CDK13 peptide count (DMSO-normalised),"CDK13; normalised to DMSO = 1, replicate values",0.3901 and 0.2615
